PubChem BioAssay (NCI)
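Exposure lasted 48 hours, with cells grown in 96-well plates and compounds tested at five concentrations. GI50: concentration for 50% inhibition of growth. TGI: concentration producing complete growth inhibition.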

What was measured:
Assay in all cases: NCI anticancer screen, dose series, 48 h
UACC-257 melanoma = system: UACC-257 melanoma
RXF 393 renal = system: RXF 393 renal
HOP-92 NSCLC = system: HOP-92 NSCLC
SW-620 colon = system: SW-620 colon
RPMI-8226 leukemia = system: RPMI-8226 leukemia
COLO 205 colon = system: COLO 205 colon
NCI-H23 lung = system: NCI-H23 lung
SK-MEL-5 melanoma = system: SK-MEL-5 melanoma
OVCAR-4 ovarian = system: OVCAR-4 ovarian
HOP-62 NSCLC = system: HOP-62 NSCLC

## C=CC(=O)N1CCC(C2CCNc3c(C(N)=O)c(-c4ccc(Oc5ccccc5)cc4)nn32)CC1 (stereo not given)
UACC-257 melanoma
  GI50: 20.3 µM
  TGI: 51.2 µM
RXF 393 renal
  GI50: 9.22 µM
  TGI: 26.6 µM
HOP-92 NSCLC
  GI50: 2.47 µM
  TGI: 15.7 µM
SW-620 colon
  GI50: 31.8 µM
  TGI: > 100 µM
RPMI-8226 leukemia
  GI50: 12.4 µM
  TGI: 39.5 µM
COLO 205 colon
  GI50: 19.1 µM
  TGI: 40.2 µM
NCI-H23 lung
  GI50: 16.5 µM
  TGI: 39.9 µM
SK-MEL-5 melanoma
  GI50: 10.6 µM
  TGI: 22.9 µM
OVCAR-4 ovarian
  GI50: 6.25 µM
  TGI: 95.4 µM
HOP-62 NSCLC
  GI50: 19.5 µM
  TGI: 67.7 µM

## Oc1cc(O)c2c(c1)OC(c1ccc(O)c(O)c1)C(OC1(c3cc(O)c(O)c(O)c3)Oc3cc(O)cc(O)c3C(O)C1O)C2 (stereo not given)
UACC-257 melanoma
  TGI: > 100 µM
RXF 393 renal
  TGI: > 100 µM
HOP-92 NSCLC
  TGI: 84.4 µM
SW-620 colon
  TGI: 60.4 µM
RPMI-8226 leukemia
  TGI: 49.5 µM
COLO 205 colon
  TGI: > 85.9 µM
NCI-H23 lung
  TGI: 50.4 µM
SK-MEL-5 melanoma
  TGI: 34 µM
OVCAR-4 ovarian
  TGI: 67.3 µM
HOP-62 NSCLC
  TGI: 56.2 µM

## N#Cc1c(-c2ccc(F)cc2)c(-c2ccc(F)cc2)nn(CCO)c1=O
UACC-257 melanoma
  TGI: > 100 µM
RXF 393 renal
  TGI: 11.2 µM
HOP-92 NSCLC
  TGI: > 100 µM
SW-620 colon
  TGI: > 100 µM
RPMI-8226 leukemia
  TGI: > 100 µM
COLO 205 colon
  TGI: 2.44 µM
NCI-H23 lung
  TGI: > 78.3 µM
SK-MEL-5 melanoma
  TGI: > 4.64 µM
OVCAR-4 ovarian
  TGI: > 100 µM
HOP-62 NSCLC
  TGI: > 76.1 µM

## O=C(CC(O)(C(F)(F)F)C(F)(F)F)c1cc(CC(=O)C(O)(C(F)(F)F)C(F)(F)F)cc(CC(=O)C(O)(C(F)(F)F)C(F)(F)F)c1
UACC-257 melanoma
  TGI: 4.56 µM
RXF 393 renal
  TGI: 4.43 µM
HOP-92 NSCLC
  TGI: 3.35 µM
SW-620 colon
  TGI: > 10 µM
RPMI-8226 leukemia
  TGI: > 10 µM
COLO 205 colon
  TGI: 3.06 µM
NCI-H23 lung
  TGI: 4.06 µM
SK-MEL-5 melanoma
  TGI: 3.04 µM
OVCAR-4 ovarian
  TGI: > 10 µM
HOP-62 NSCLC
  TGI: 3.29 µM

## Cc1nc2ccccc2nc1-c1ccc(N=[N+]([O-])c2ccc(-c3nc4ccccc4nc3C)cc2)cc1
UACC-257 melanoma
  TGI: > 100 µM
RXF 393 renal
  TGI: > 95.1 µM
HOP-92 NSCLC
  TGI: > 66.1 µM
SW-620 colon
  TGI: > 100 µM
RPMI-8226 leukemia
  TGI: > 100 µM
COLO 205 colon
  TGI: > 100 µM
NCI-H23 lung
  TGI: > 100 µM
SK-MEL-5 melanoma
  TGI: > 100 µM
OVCAR-4 ovarian
  TGI: > 100 µM
HOP-62 NSCLC
  TGI: > 81.8 µM

## Nc1nccc2c1ccn2-c1ccc(NC(=O)c2ccc(N3CCOCC3)c(C(F)(F)F)c2)cc1
UACC-257 melanoma
  GI50: 2.15 µM
  TGI: 8.61 µM
RXF 393 renal
  GI50: 0.158 µM
  TGI: 0.378 µM
HOP-92 NSCLC
  GI50: 0.418 µM
  TGI: 3.84 µM
SW-620 colon
  GI50: 1.06 µM
  TGI: 4.14 µM
RPMI-8226 leukemia
  GI50: 0.311 µM
  TGI: 2.88 µM
COLO 205 colon
  GI50: 0.297 µM
  TGI: 0.871 µM
NCI-H23 lung
  GI50: 0.94 µM
  TGI: 17.3 µM
SK-MEL-5 melanoma
  GI50: 0.944 µM
  TGI: 2.28 µM
OVCAR-4 ovarian
  GI50: 1.96 µM
  TGI: 24.6 µM
HOP-62 NSCLC
  GI50: 0.342 µM
  TGI: 1.73 µM

## Cn1cnc([N+](=O)[O-])c1S(=O)(=O)Oc1ccccc1
UACC-257 melanoma
  GI50: 3.84 µM
  TGI: 16.3 µM
RXF 393 renal
  GI50: 2.23 µM
  TGI: 6.04 µM
HOP-92 NSCLC
  GI50: 5.85 µM
  TGI: 19.1 µM
SW-620 colon
  GI50: 1.92 µM
  TGI: 4.34 µM
RPMI-8226 leukemia
  GI50: 4.69 µM
  TGI: 17.6 µM
COLO 205 colon
  GI50: 1.68 µM
  TGI: 3.29 µM
NCI-H23 lung
  GI50: 15 µM
  TGI: 37.9 µM
SK-MEL-5 melanoma
  GI50: 17.3 µM
  TGI: 34.2 µM
OVCAR-4 ovarian
  GI50: 3.22 µM
  TGI: 15.1 µM
HOP-62 NSCLC
  GI50: 19.3 µM
  TGI: 39 µM

## NS(=O)(=O)c1ccc(N(/C=C/C(=O)C(F)(F)F)CC(=O)c2ccc(Cl)cc2)cc1
UACC-257 melanoma
  GI50: 50.9 µM
  TGI: > 100 µM
RXF 393 renal
  GI50: > 100 µM
  TGI: > 100 µM
HOP-92 NSCLC
  GI50: 22.3 µM
  TGI: 86.7 µM
SW-620 colon
  GI50: 57 µM
  TGI: > 100 µM
RPMI-8226 leukemia
  GI50: 20.2 µM
  TGI: 53.6 µM
COLO 205 colon
  GI50: 32.2 µM
  TGI: > 100 µM
NCI-H23 lung
  GI50: 37.5 µM
  TGI: > 100 µM
SK-MEL-5 melanoma
  GI50: 38.9 µM
  TGI: > 100 µM
OVCAR-4 ovarian
  GI50: 60 µM
  TGI: > 100 µM
HOP-62 NSCLC
  GI50: 33 µM
  TGI: > 100 µM

## COc1ccc(/C(=N\NC(=O)C(N)=O)C(c2ccc(OC)cc2)C2(O)C(=O)Nc3c(Cl)cccc32)cc1 (stereo not given)
UACC-257 melanoma
  TGI: > 100 µM
RXF 393 renal
  TGI: > 100 µM
HOP-92 NSCLC
  TGI: > 100 µM
SW-620 colon
  TGI: > 100 µM
RPMI-8226 leukemia
  TGI: > 100 µM
COLO 205 colon
  TGI: > 100 µM
NCI-H23 lung
  TGI: > 100 µM
SK-MEL-5 melanoma
  TGI: > 100 µM
OVCAR-4 ovarian
  TGI: > 100 µM
HOP-62 NSCLC
  TGI: > 100 µM

## C[C@H]1Oc2cc(cnc2N)-c2c(nn(C)c2C#N)CN(C)C(=O)c2ccc(F)cc21
UACC-257 melanoma
  GI50: 25.8 µM
  TGI: > 100 µM
RXF 393 renal
  GI50: 16.7 µM
  TGI: > 90.9 µM
HOP-92 NSCLC
  GI50: 2.54 µM
  TGI: > 54.2 µM
SW-620 colon
  GI50: 35.6 µM
  TGI: > 100 µM
RPMI-8226 leukemia
  GI50: > 100 µM
  TGI: > 100 µM
COLO 205 colon
  GI50: 5.24 µM
  TGI: 51.4 µM
NCI-H23 lung
  GI50: 59.1 µM
  TGI: > 100 µM
SK-MEL-5 melanoma
  GI50: > 74.8 µM
  TGI: > 100 µM
OVCAR-4 ovarian
  GI50: > 100 µM
  TGI: > 100 µM
HOP-62 NSCLC
  GI50: 23 µM
  TGI: > 100 µM

## COC12C=C/C(=C(/C(=O)OCc3ccncc3)C(=O)CCCCCCCCC3(OC)C=C/C(=C(/C(=O)OCc4ccncc4)C(=O)CCCCCCCC1)O3)O2
UACC-257 melanoma
  GI50: 1.14 µM
  TGI: 4.49 µM
RXF 393 renal
  GI50: 0.277 µM
  TGI: 0.896 µM
HOP-92 NSCLC
  GI50: 1.23 µM
  TGI: 2.36 µM
SW-620 colon
  GI50: 0.227 µM
  TGI: 1.26 µM
RPMI-8226 leukemia
  GI50: 0.196 µM
  TGI: 1.1 µM
COLO 205 colon
  GI50: 0.78 µM
  TGI: 2.18 µM
NCI-H23 lung
  GI50: 0.178 µM
  TGI: 0.762 µM
SK-MEL-5 melanoma
  GI50: 0.247 µM
  TGI: 0.867 µM
OVCAR-4 ovarian
  GI50: 0.583 µM
  TGI: 3.41 µM
HOP-62 NSCLC
  GI50: 1.18 µM
  TGI: 5.59 µM

## O=C(c1ccc(Cl)cc1)c1cnc(Nc2ccccc2Cl)s1
UACC-257 melanoma
  TGI: 47.2 µM
RXF 393 renal
  TGI: 42.8 µM
HOP-92 NSCLC
  TGI: 49.5 µM
SW-620 colon
  TGI: > 100 µM
RPMI-8226 leukemia
  TGI: > 100 µM
COLO 205 colon
  TGI: > 100 µM
NCI-H23 lung
  TGI: 53.7 µM
SK-MEL-5 melanoma
  TGI: 55.2 µM
OVCAR-4 ovarian
  TGI: 98.2 µM
HOP-62 NSCLC
  TGI: 54 µM

## CC1(C)OCCn2c1nc1c(N3CCOCC3)nc(-c3cnc(N)nc3)nc12
UACC-257 melanoma
  GI50: 0.197 µM
  TGI: 1.97 µM
RXF 393 renal
  GI50: 0.211 µM
  TGI: 1.69 µM
HOP-92 NSCLC
  GI50: 0.141 µM
  TGI: 1.84 µM
SW-620 colon
  GI50: 0.399 µM
  TGI: > 100 µM
RPMI-8226 leukemia
  GI50: 2.14 µM
  TGI: 12.5 µM
COLO 205 colon
  GI50: 0.217 µM
  TGI: 5.95 µM
NCI-H23 lung
  GI50: 0.484 µM
  TGI: > 100 µM
SK-MEL-5 melanoma
  GI50: 0.346 µM
  TGI: 2.9 µM
OVCAR-4 ovarian
  GI50: 0.278 µM
  TGI: 8.82 µM
HOP-62 NSCLC
  GI50: 0.477 µM
  TGI: 6.56 µM

## CCCn1c(N)c(C(=O)N/N=C(/C)c2cc3cccc(OC)c3o2)sc1=S
UACC-257 melanoma
  GI50: 23.2 µM
  TGI: > 100 µM
RXF 393 renal
  GI50: 24.1 µM
  TGI: > 100 µM
HOP-92 NSCLC
  GI50: 27.4 µM
  TGI: 78.8 µM
SW-620 colon
  GI50: 19.2 µM
  TGI: > 100 µM
RPMI-8226 leukemia
  GI50: 53.6 µM
  TGI: > 100 µM
COLO 205 colon
  GI50: 56.7 µM
  TGI: > 100 µM
NCI-H23 lung
  GI50: 41.1 µM
  TGI: > 100 µM
SK-MEL-5 melanoma
  GI50: 36.1 µM
  TGI: > 100 µM
OVCAR-4 ovarian
  GI50: 49.7 µM
  TGI: > 100 µM
HOP-62 NSCLC
  GI50: 11.8 µM
  TGI: 30 µM
